From patent US9808505B2, “Suppression of malignant mesothelioma by overexpression or stimulation of endothelial protein C receptors (EPCR)” (BOARD OF REGENTS, THE UNIVERSITY OF TEXAS SYSTEM, priority 2013, dated 2017)

What was measured:
Format in all cases: cell-based, human
REN MPM cells [1] = assay: Measurement of cytosolic Ca2+ release (Fluo-4 fluorescence microscopy); settings: peptide 50 μM (FIG. 1E)
Procedure: Fluorescence microscopy was used for measurement of cytosolic Ca^2+ release as described earlier (34). MPM cells were seeded in 8-well chambered cover slips (Nunc, Rochester, N.Y.) at a density of 10,000 cells/well. After 24 h, cells were washed and incubated with 4 μM Fluo-4/AM Ester (Molecular Probes, Inc, Eugene, Oreg.) for 1 h in buffer B in a humidified atmosphere of 37° C./5% CO2. The cells were then washed with buffer B, and a chambered cover slip was placed on the stage of an inverted microscope (Axio Observer Z1) encased in an incubation chamber that maintained 37° C./5% CO2. Live images of cell fluorescence were recorded by exciting the Fluo-4 probe with 488 nm light and monitoring 530 nm emission using Carl Zeiss LSM 510 Meta Confocal Laser Scanning system. After 15 sec of image acquisition, PAR1 agonist peptide […]; SEQ ID NO:10)) or PAR2 agonist peptide (SLIGRL; (SEQ ID NO:11)) was added to the cells at a final concentration of 50 μM and the recording was continued for an additional 165 sec. Results are represented as change in fluorescence intensity over time.

REN MPM cells [2] = assay: Cell proliferation assay (BrdU incorporation) in MPM cells; settings: for difference in cell proliferation between REN and REN(+EPCR): in vitro, presence or absence of ligand, FVIIa 10 nM, APC 20 nM, thrombin 10 nM, 24 h; for cell proliferation of REN cells in response to ligand (in words): wild-type REN cells in vitro, 10 nM ligand in SFM, 24 h (FIG. 8)
Procedure: Cell proliferation assay in MPM cells in the presence or absence of various ligands was performed using Apo-BrdU cell proliferation assay kit from Millipore (Temecula, Calif.) following the manufacturer's instructions. Briefly, MPM cells (7,500 cells/well) were seeded in 96-well plates in RPMI medium containing 10% FBS, and after 24 h the cells were washed once and maintained in serum-free medium (SFM). After 24 h, the cells were washed once with SFM and incubated with SFM or SFM containing FVIIa, APC, thrombin or serum (1%) for 24 h. Twenty μl of BrdU-labeling solution was added to each well 8 h prior to the completion of 24 h incubation with the test compound. The cells were fixed and processed for detection of BrdU incorporation by incubating the cells with an anti-BrdU antibody, followed by peroxidase-conjugated secondary antibody and then the substrate tetramethyl-benzidine with three washings in between each step. The color developed in the assay was measured as absorbance at 450 nm using the absorbance measured at 650 nm as a reference value in a microplate reader (Molecular Devices, Sunnyvale, Calif.).

REN MPM cells [3] = assay: Elaboration of proangiogenic factors on exposure to FVIIa; settings: REN MPM cells in response to FVIIa
Procedure: To assess whether TF promotes tumor growth in MPM through elaboration of proangiogenic factors by direct signaling (as observed in breast cancer cells (38, 39)), studies were conducted here to examine whether exposure of REN MPM cells to FVIIa increased production of proangiogenic factors in these cells. […] Thus, it seems unlikely that TF-FVIIa-PAR1-mediated cell signaling promotes MPM tumor growth through elaboration of proangiogenic factors as previously speculated for promotion of tumor growth in breast cancer (21).

| Molecule | intracellular Ca2+ release (REN MPM cells [1]) | thrombin-induced cell proliferation in PAR1 knock-down cells (REN MPM cells [2]; REN cells with PAR1 knock-down (REN-P1KD)) | difference in cell proliferation between REN and REN(+EPCR) (REN MPM cells [2]) | cell proliferation of REN cells in response to ligand (in words) (REN MPM cells [2]) | elaboration of proangiogenic factors, including IL-8, CCN1 and CCN2 (REN MPM cells [3]) | FVIIa-induced increase in cell proliferation in TF knock-down cells (REN MPM cells [2]; REN cells with TF knock-down (REN-TFKD)) | increase in rate of cell proliferation (REN MPM cells [2]; naïve REN MPM cells, addition of FVIIa) |
| --- | --- | --- | --- | --- | --- | --- | --- |
| SLIGRL [PAR2 agonist peptide] | not |  |  |  |  |  |  |
| TFLLRNPNDK [PAR1 agonist peptide] | induced intracellular Ca^2+ release |  |  |  |  |  |  |
| thrombin |  | diminished | no measurable differences | modest increase |  |  |  |
| FVIIa: Recombinant human FVIIa from Novo Nordisk; clotting factor that initiates coagulation upon binding to TF (protein) ANAFLEELRPGSLERECKEEQCSFEEAREIFKDAERTKLFWISYSDGDQCASSPCQNGGSCKDQLQSYICFCLPAFEGRNCETHKDDQLICVNENGGCEQYCSDHTGTKRSCRCHEGYSLLADGVSCTPTVEYPCGKIPILEKRNASKPQGRIVGGKVCPKGECPWQVLLLVNGAQLCGGTLINTIWVVSAAHCFDKIKNWRNLIAVLGEHDLSEHDGDEQSRRVAQVIIPSTYVPGTTNHDIALLRLHQPVVLTDHVVPLCLPERTFSERTLAFVRFSLVSGWGQLLDRGATALELMVLNVPRLMTQDCLQQSRKVGDSPNITEYMFCAGYSDGSKDSCKGDSGGPHATHYRGTWYLTGIVSWGQGCATVGHFGVYTRVSQYIEWLQKLMRSEPRPGVLLRAPFP |  |  | no measurable differences | modestly but consistently | robust or reproducible elaboration | abrogated | about 70% |
